US10947188B2, “Small molecule ferroptosis inducers” (THE TRUSTEES OF COLUMBIA UNIVERSITY IN THE CITY OF NEW YORK, priority 2016, dated 2021)
≈ marks a conversion by molar mass, not a printed value.

System: HT-1080 cells
Assay: Lethality of commercially available CIL41/70 structural analogs
Assay type: cell-based
Conditions: Homo sapiens, tested once in technical triplicates
Experimental: 1,000 cells per 36 μl were seeded in each well in 384-well plates. Lethal compounds were dissolved, and a twofold, 12-point dilution series was prepared in DMSO. Compound solutions were further diluted with media at 1:25, and 4 μl per well of the diluted solutions was added to cell cultures immediately after cells were seeded. […] When other cell-death-modulating compounds (100 nM sodium selenite, 1 μM cerivastatin, 100 μg/mL mevalonic acid) were used in cotreatments, they were supplemented to cell culture for 24 h before lethal compounds were added to cell culture, after which cells were further incubated for 24 h at 37° C. under 5% CO2. On the day of the viability measurement, we added 10 μl per well of 50% Alamar Blue diluted in media (Life Technologies) and further incubated the cells at 37° C. for 6 h. Fluorescence intensity (excitation/emission: 530/590) was measured with a Victor 3 plate reader (PerkinElmer), and the normalized viability was calculated as VL=(IL−I0)/(IV−I0), where VL, I0, IV, and IL are the normalized viability and the raw fluorescence intensities from the wells containing media, cells treated with a vehicle (negative control), and cells with the lethal compound (L), respectively. When the effect of a chemical modulator (M) on L was calculated, we instead used the equation VL|M=(IM,L−I0)/(IM,V−I0), where VL|M, IM,L and IM,V are the normalized viability, and fluorescence intensity from cells treated with […], respectively. The viability was typically measured in biological triplicate unless otherwise specified. A representative dose-response curve, the mean and standard error of normalized viability from one replicate were plotted. HT-1080 viability after modulator treatments corresponding to FIG. 3C and FIGS. 5E-5F is available in FIGS. 19A-19C.
Their lethality was tested once in HT-1080 cells in technical triplicates.

Row | Compound | EC50
1 | CCc1ccc(OCC(=O)O/N=C(\N)Cc2cccc3ccccc23)cc1 [CB81] | > 20 µg/mL
2 | COc1ccccc1C/C(N)=N/OC(=O)c1ccc2c(c1)OCO2 [A05] | 5.04 µg/mL (≈ 15.4 µM)
3 | Cc1cc(OCC(=O)O/N=C(\N)Cc2ccc([N+](=O)[O-])cc2)ccc1Cl [CB71] | > 20 µg/mL
4 | COc1ccccc1C/C(N)=N/OC(=O)COc1ccccc1C [CB33] | > 20 µg/mL
